# According to patent US6040149A, “Assay for identifying agents which act on the ceramide-activated protein kinase, kinase suppressor of ras, and methods of using said agents” (priority 1997, dated 2000):
# Where two headings read alike, the source gives them in different places.
# Experiments:
# [1] = test system: ceramide-activated protein kinase; conditions: generation of other lipid second messengers, refs [111, 112]; cited from earlier work
# KSR [2] = target: T1, KSR (Mus musculus, UniProt Q61097); experiment: KSR autophosphorylation in vitro; assay type: biochemical, mouse (KSR immunoprecipitated from COS-7 cells); set-up: Raf-1 peptides as substrate
# T1 sequence (Q61097 1-873): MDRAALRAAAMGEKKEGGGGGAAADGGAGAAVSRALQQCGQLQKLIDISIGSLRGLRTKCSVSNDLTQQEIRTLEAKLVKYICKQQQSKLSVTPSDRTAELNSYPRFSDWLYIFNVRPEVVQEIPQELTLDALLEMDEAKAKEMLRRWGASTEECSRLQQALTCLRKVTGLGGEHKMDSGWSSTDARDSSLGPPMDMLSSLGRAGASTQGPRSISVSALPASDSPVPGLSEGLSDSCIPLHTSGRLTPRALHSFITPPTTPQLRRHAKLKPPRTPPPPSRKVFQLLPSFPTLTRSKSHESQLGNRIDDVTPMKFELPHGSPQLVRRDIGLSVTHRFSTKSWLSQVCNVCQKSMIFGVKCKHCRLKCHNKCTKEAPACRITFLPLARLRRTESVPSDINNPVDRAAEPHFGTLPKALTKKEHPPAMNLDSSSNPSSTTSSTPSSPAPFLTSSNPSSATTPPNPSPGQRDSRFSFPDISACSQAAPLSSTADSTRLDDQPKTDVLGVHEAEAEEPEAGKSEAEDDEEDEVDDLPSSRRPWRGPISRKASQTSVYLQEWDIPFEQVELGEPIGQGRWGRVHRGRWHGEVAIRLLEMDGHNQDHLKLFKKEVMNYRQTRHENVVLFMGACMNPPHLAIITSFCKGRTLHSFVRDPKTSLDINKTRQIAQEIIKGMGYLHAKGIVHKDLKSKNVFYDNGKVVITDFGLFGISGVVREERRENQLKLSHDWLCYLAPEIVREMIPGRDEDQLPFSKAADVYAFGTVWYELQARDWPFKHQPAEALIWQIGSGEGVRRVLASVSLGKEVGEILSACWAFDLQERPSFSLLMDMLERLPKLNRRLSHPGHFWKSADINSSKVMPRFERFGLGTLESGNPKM
# Experimental: Phosphorylated KSR was resolved and detected as in FIG. 2A.
# KSR was immunoprecipitated as above from 0.8 mg NP-40 lysate protein with 40 μl agarose-conjugated anti-Flag antibody at 4° C. for 4 hrs or overnight. […] The reaction was stopped by addition of Laemmli sample buffer. Samples were resolved by 7.5% sodium dodecyl sulfate-polyacrylamide gel electrophoresis (SDS-PAGE) and autoradiographed.
# KSR [3] = target: T1, KSR; experiment: KSR activity toward Raf-1 peptides in vitro; assay type: biochemical, mouse (KSR immunoprecipitated from COS-7 cells); set-up: Raf-1 peptides as substrate; conditions: 30 nM
# Experimental: The wild type peptide contains eight potential phosphorylation sites (shown in bold). Substitution of alanines and glycines for serines and threonines generated one peptide (TTLP-peptide) containing only two potential phosphorylation sites (Thr^268,269) and another peptide (AALP-peptide) with no potential phosphorylation sites.
# FIG. 28A--Flag-tagged KSR was immunoprecipitated from 0.2 mg COS-7 lysate, and assayed with TTLP- or AALP-peptides in the presence of 30 nM ceramide (Avanti) or diluent (DMSO). Background counts per minute (cpm) derived from samples incubated with the AALP-peptide which contains no phosphorylation sites were subtracted from all points. Background cpm always represented less than 25% of the untreated total.
# FIG. 28B--Flag-tagged KSR immunoprecipitated from 0.2 mg COS-7 lysate was assayed with TTLP- or AALP-peptides in the presence of ceramide or diluent for 45 min as described in FIG. 7A.
# FIG. 28C--Flag-tagged KSR was immunoprecipitated from 0.15 mg COS-7 lysate and assayed with TTLP- or AALP-peptides for 20 min in the presence of 30 nM of the indicated lipid second messengers as described in FIG. 28A (AA: arachidonic acid; LPA: lyso phosphatidic acid; PMA: phorbol 12-myristate 13-acetate; DAG: 1,2-diacylglycerol).
# KSR-bound beads were incubated with reaction buffer B plus 10 mM MnCl2, 5 μM ATP and [γ-^32 P]ATP at 22° C. for the period of time indicated in the presence of 0.3 mM synthetic Raf-peptide or substrate peptides specific for other Ser/Thr protein kinases. […] (SEQ ID NO.3). Substitution of glycines and alanines for serines and threonines generated one peptide (termed TTLP-peptide) containing only two potential phosphorylation sites at Thr^268,269 (in bold), […] (SEQ ID NO. 24), and another peptide (termed AALP-peptide; SEQ ID No.6) with no potential phosphorylation sites, […] (SEQ ID No.25). The amino acid sequences of substrate peptides specific for other protein kinases (Joseph et al., 1993) are: […] (SEQ ID NO.26) (PKA); […] (SEQ ID NO.27) (S6 kinase); […] (SEQ ID NO.28)(CK II); […] (SEQ ID NO.29) (CaM kinase II); and […] (SEQ ID NO.30) (PKC). […] Substrate peptides for PKA and PKC were from Sigma (St. Louis, Mo.). The reaction was stopped by addition of a stop solution containing 0.5 M ATP in 90% formic acid. The beads were removed by centrifugation at 5000×g for 2 min and the supernatant was loaded on P81 Whatman filter paper. The filter was air dried and washed in 4 mM Na2 H2 P2 O7, 1 mM acetic acid for one hour. The filter was baked at 90° C. for 10 min and quantified by Cerenkov counting using a Beckman LS 5000TD scintillation counter. In some experiments, samples were separated by C18 reverse-phase chromatography on HPLC (Mathias et al., 1991) to verify the results of the filter assay. Virtually identical results were obtained with both methods.
# [4] = test system: ceramide-activated protein kinase; experiment: EGFR peptide phosphorylation in a cell-free system (HL-60 nuclei-free supernate); assay type: biochemical, human (HL-60 cells); conditions: GTP and GTP-γ-S 0.25 to 200 μM; sphingomyelinase 1×10^-3 U ml^-1, 5 minutes; phospholipases 40- to 400-fold higher
# Experimental: Effect of TNF-α on ceramide-activated protein kinase activity. HL-60 cells were incubated in serum-free medium and homogenized (as in FIG. 9). […] ATP (750 μM, 4000 dpm pmol^-1), and 75 μl of reaction buffer. […] Phosphorylated peptide was first run on a C18 Sep-Pak cartridge, then resolved by C18 reverse-phase HPLC (Waters, Milford, Mass.), with a linear gradient of acetonitrile. The peptide eluted at 30% acetonitrile, as determined by monitoring Cerenkov radiation in 1-ml fractions. Background activity was subtracted from each point. (A) Kinetics of TNF-α (30 nM)-stimulated EGFR peptide phosphorylation. Values (mean) represent data from four experiments. (B) Concentration dependence of EGFR peptide phosphorylation at 5 minutes of stimulation with TNF-α (0.01 to 30 nM). Values (mean) represent data derived from duplicate points in two experiments. The SEM of the values in (A) was 18% and the mean range of values in (B) was 3%.
# Effect of phospholipases on ceramide-activated protein kinase activity. Nuclei-free supernates, prepared as in FIG. 9, were first incubated with TNF-α (3 nM) or added directly to reaction mixtures that contained various phospholipases; sphingomyelinase (SMase) (1×10^-3 U ml^-1, S. aureus), phospholipase A2 (PlA2) (3.8×10^-2 and 3.8×10^-1 U ml^-1, Vipera ruselli), phospholipase C (PLC) (3.8×10^-2 U ml^-1, Bacillus cereus) and phospholipase D (PLD) (3.8×10^-2 U ml^-1, Streptomyces chromocuscus). Peptide phosphorylation was measured as in FIG. 10. Control value represents peptide phosphorylation in the absence of phospholipases or TNF-α. Values (mean±SEM) represent data derived from duplicate samples in three experiments. *P<0.001 compared to control.
# The effect of TNF-α on ceramide-activated protein kinase activity was assessed. […] For studies assessing the effect of TNFα in broken cell preparations, nuclei-free supernates were incubated under conditions sufficient for stimulation of neutral sphingomyelinase in a reaction mixture that also contained EGFR peptide and γ-^32 P-labeled ATP. Phosphorylated peptide was resolved by high-performance liquid chromatograph (HPLC) and quantified by Cerenkov counting. Kinase activity was calculated from the specific activity of [γ-^32 P] ATP and incorporation of ^32 P into EGFR peptide. Background activity was subtracted from each point. […] TNF-α stimulation of kinase activity was evident by 1 minute and demonstrable for at least 10 minutes. If the initial incubation with TNF-α at 4° C. was omitted and TNF was added directly to the reaction mixture at 22° C., the reaction was delayed. […] TNF-α enhanced kinase activity in a concentration-dependent manner at 5 minutes (FIG. 10B). […] This is similar to the ED50 of 200 pM for stimulation of ceramide-activated protein kinase by TNF-α in intact cells. TNF-α enhanced kinase activity in a total of 20 separate studies.
# Control activity reflects several TNF-α-independent protein kinases that are known to phosphorylate EGFR peptide on Thr^669.
# Raf-1 = experiment: Kinase activity of immunoprecipitated Raf-1 toward MEK1 after HL-60 cell stimulation; assay type: cell-based, human (HL-60 cells)
# Experimental: Recovery of MEK1 was monitored by western blot (Bottom Panel). Identical results were obtained with cells stimulated for 5 min with TNF.
# Recovery of MEK1 was monitored by western blot (Bottom Panel).
# These studies indicate that Raf-1 is a component of the sphingomyelin pathway mediating TNF action.
# MEK1 autophosphorylation was for 45 min. An autoradiogram of MEK1 phosphorylation (top panel) and recovery of MEK1 protein by western blot (bottom panel) are shown. For western blot, proteins separated by SDS-PAGE were electrotransferred to an Immobilon PVDF membrane at 12 volts overnight at 4° C. Membranes were then blocked with 2% BSA in TBS [20 mM Tris, pH 7.6, 137 mM NaCl] for 1 hr and washed with TBST (TBS containing 0.2% Tween-20).
compound,measurement,setting,value
"1,2-diacylglycerol",effect on kinase activity,[1],failed to enhance kinase activity
same,effect on activation of KSR,KSR [2],no effect
same,effect on activation of KSR towards Raf-peptide,KSR [3],no effect
"Nc1nc2c(ncn2[C@@H]2O[C@H](COP(=O)(O)OP(=O)(O)OP(=O)(O)O)[C@@H](O)[C@H]2O)c(=O)[nH]1 [GTP, Guanosine triphosphate]",effect on kinase activity,[4],did not affect kinase activity
"Nc1nc2c(ncn2[C@@H]2O[C@H](COP(=O)(O)OP(=O)(O)OP(O)(O)=S)[C@@H](O)[C@H]2O)c(=O)[nH]1 [GTP-γ-S, guanosine-5'-O-(3-thiotriphosphate)]",effect on kinase activity,[4],did not affect kinase activity
CCCCC/C=C\C/C=C\C/C=C\C/C=C\CCCC(=O)O [arachidonic acid],effect on kinase activity,[1],failed to enhance kinase activity
same,effect on activation of KSR,KSR [2],no effect
same,effect on activation of KSR towards Raf-peptide,KSR [3],no effect
Granulocyte-macrophage colony stimulating factor: induces monocytic differentiation of HL-60 cells,increase of Raf-1 activity,Raf-1; GM-CSF 500 pM,2.5 fold
PDGF,increase of Raf-1 activation,"Raf-1; PDGF 5 nM, after TPA induction of PDGF receptors",4 fold
insulin: insulin,increase of Raf-1 activity,Raf-1; insulin 100 nM,4 fold
lyso-phosphatidic acid,effect on activation of KSR,KSR [2],no effect
same,effect on activation of KSR towards Raf-peptide,KSR [3],no effect
phosphatidic acid,effect on kinase activity,[1],failed to enhance kinase activity
phosphatidylcholine,effect on activation of KSR,KSR [2],no effect
phosphatidylserine,effect on activation of KSR,KSR [2],no effect
